Results from PubChem BioAssay (NCI).
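Five concentrations, 48 hours, 96-well plates. At the TGI there is no net growth.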

Assays:
Experiment in all cases: inhibition of tumour cell growth, NCI panel, 48 h
PC-3 prostate = test system: PC-3 prostate
HS 578T breast = test system: HS 578T breast
SW-620 colon = test system: SW-620 colon
MDA-MB-231 breast = test system: MDA-MB-231 breast
CAKI-1 renal = test system: CAKI-1 renal
MOLT-4 leukemia = test system: MOLT-4 leukemia
UACC-257 melanoma = test system: UACC-257 melanoma
SN12C renal = test system: SN12C renal
SNB-19 CNS = test system: SNB-19 CNS
HCT-116 colon = test system: HCT-116 colon
786-0 renal = test system: 786-0 renal

Row | Structure (SMILES) | TGI (PC-3 prostate) [µM] | TGI (HS 578T breast) [µM] | TGI (SW-620 colon) [µM] | TGI (MDA-MB-231 breast) [µM] | TGI (CAKI-1 renal) [µM] | TGI (MOLT-4 leukemia) [µM] | TGI (UACC-257 melanoma) [µM] | TGI (SN12C renal) [µM] | TGI (SNB-19 CNS) [µM] | TGI (HCT-116 colon) [µM] | TGI (786-0 renal) [µM]
1 | O=C(NCCCCNCCCNC(=O)C(F)(F)F)C(F)(F)F | > 100 | > 100 | > 100 | > 100 | > 100 | > 100 | > 100 | > 100 | > 100 | > 100 | > 100
2 | O=[N+]([O-])C(=C/C1CCCCC1)/C(=C\C1CCCCC1)[N+](=O)[O-] | 34.4 | 18.4 | 17.4 | 8.98 | 11.1 | > 26.1 | 23.5 | 11.5 | 35.7 | 17.7 | 4.11
3 | COc1ccccc1/C=C1/Sc2scc(CC(=O)Nc3ccccc3)[n+]2C1=O | 93.3 | > 100 | > 100 | 70.8 | > 100 | 56.2 | 80.4 | > 100 | > 100 | > 100 | > 100
4 | c1ccc2c(Cc3c[nH]c4ccccc34)c[nH]c2c1 | 38.3 | 63.3 | 61.6 | 31.5 | 31.4 | 61.1 | 34.5 | 31.7 | 44.4 | 31.2 | 33.6
5 | C#CCSc1cnc2ccccc2c1Sc1c[nH]c2ccccc2c1=O | > 100 | > 100 | > 100 | > 100 | > 100 | > 100 | 64.4 | 40.7 | > 100 | 32.5 | 44.9
6 | COc1ccc(CN=C2Nc3ccncc3S(=O)(=O)N2c2ccccc2)cc1 | > 100 | > 100 | > 100 | > 100 | > 100 | 44.7 | > 100 | > 100 | > 100 | > 100 | > 100
7 | CC(=O)O/C(=C(/C#N)C(=O)O)C1C(C(=O)O)C(c2ccccc2[N+](=O)[O-])C=C(c2ccco2)N1c1ccncc1 (centres undefined) | 18.4 | 42 | 3.57 | 14.6 | 14.1 | 14.4 | 12 | 10.2 | 24.2 | 3.06 | 6.62
8 | CC1=NN(C(=O)CC(=O)Nc2cccc(Cl)c2)C(=O)C1N=Nc1ccc(S(=O)(=O)c2ccc(N=NC3C(=O)N(C(=O)CC(=O)Nc4cccc(Cl)c4)N=C3C)cc2)cc1 (centres undefined) | > 100 | > 100 | > 100 | 52.2 | > 100 | > 100 | > 100 | > 100 | > 100 | > 100 | > 100
9 | COC(=O)c1ccc(NCC2=CC(=O)c3ccccc3C2=O)cc1 | 27.8 | 76.4 | 54.5 | 10.3 | 28 | > 29.1 | 29.4 | 59.3 | 99.7 | 35.3 | 43.2
10 | Cc1cc2c(cc1Cl)Sc1nnc(C)n1S2(=O)=O | 37 | 79.7 | 35 | 31.4 | 29.9 | 34.7 | 30.5 | 34.3 | 86.5 | 45.4 | 44.5
11 | C/C=C/[C@@H]1O[C@H](CC#C[Si](C)(C)C)[C@@]2(C=O)C(C)=CC[C@H](C(C)C)[C@@H]12 | 33.8 | > 100 | 59.5 | 36.6 | 5.13 | 34.5 | 32.5 | 34.8 | 62.3 | 36.9 | 31.3
12 | COC(=O)c1cc(C)ccc1CC(Cc1ccccc1C)C(=O)OC (centres undefined) | > 100 | > 100 | > 100 | > 100 | > 100 | 24.7 | 91.9 | > 100 | > 100 | > 100 | > 100
13 | N#Cc1nc(Cc2ccccc2)oc1N | > 100 | > 100 | > 100 | > 100 | > 100 | > 100 | > 100 | > 100 | > 100 | > 100 | > 100
14 | CC(C)(N=NC(C)(C)C1=NCCN1)C1=NCCN1 | > 100 | > 100 | > 100 | > 100 | > 100 | > 100 | > 100 | > 100 | > 100 | > 100 | > 100
15 | Cc1cc2nc3c(C(O)CO)nn(-c4ccccc4)c3nc2cc1C (centres undefined) | 32.7 | 70.9 | 55.4 | 55 | 33.2 | > 100 | 48.1 | 32.4 | 56.1 | 36.6 | 42.8
16 | Cc1ccc(NNc2cc(=O)[nH]c(=O)[nH]2)cc1Cl | > 100 | > 100 | 28.2 | 29.9 | 28.4 | 58.3 | 32 | > 100 | > 100 | 28.1 | 28
17 | Cc1[nH]n(-c2nc(O)c(C)c(=O)[nH]2)c(=O)c1CCO | > 100 | > 100 | > 100 | > 100 | > 100 | > 100 | > 100 | > 100 | > 100 | > 100 | > 100
18 | CC1C=C(NCC2(CO)CCC2)NC(N)=N1 (centres undefined) | > 100 | > 100 | > 100 | > 100 | > 100 | > 100 | > 100 | > 100 | > 100 | > 100 | > 100
19 | CCOC(=O)c1cc2cc(CSc3ccccc3)ccc2oc1=O | > 100 | > 100 | > 100 | > 100 | > 100 | > 100 | > 100 | > 100 | > 100 | > 100 | > 100
